Data taken from ChEMBL document CHEMBL1146720, “Bicyclic anti-VZV nucleosides: thieno analogues bearing an alkylphenyl side chain have reduced antiviral activity” (Bioorg Med Chem Lett, 2004).

Columns and labels:
[1] = system: Human alphaherpesvirus 3; assay: Antiviral activity against Varicella-Zoster virus (thymidine kinase deficient) TK-(07/1); assay type: functional, organism-based
[2] = system: Human alphaherpesvirus 3; assay: Antiviral activity against Varicella-Zoster virus (YS); assay type: functional, organism-based
[3] = system: HEL (human embryonic lung); assay: Minimal cytotoxic concentration, required to alter microscopically detectable cell morphology
[4] = system: HEL (human embryonic lung); assay: Cytotoxic concentration required to inhibit Hel cell growth
[5] = system: Human alphaherpesvirus 3; assay: Antiviral activity against Varicella-Zoster virus (OKA); assay type: functional, organism-based

SMILES | EC50 [1] | EC50 [2] | MCC [3] | CC50 [4] | EC50 [5]
CCCc1ccc(-c2cc3cn([C@H]4C[C@H](O)[C@@H](CO)O4)c(=O)nc3s2)cc1 | > 16000 nM | 60 nM | 80 µM | > 200000 nM | 90 nM
CCCCCCCc1ccc(-c2cc3cn([C@H]4C[C@H](O)[C@@H](CO)O4)c(=O)nc3s2)cc1 | > 20000 nM | 180 nM | 50 µM | > 200000 nM | 270 nM
CCCCc1ccc(-c2cc3cn([C@H]4C[C@H](O)[C@@H](CO)O4)c(=O)nc3s2)cc1 | > 3200 nM | 20 nM | 50 µM | > 200000 nM | 28 nM
CCc1ccc(-c2cc3cn([C@H]4C[C@H](O)[C@@H](CO)O4)c(=O)nc3s2)cc1 | 20000 nM | 150 nM | > 200 µM | > 200000 nM | 200 nM
CCCCCc1ccc(-c2cc3cn([C@H]4C[C@H](O)[C@@H](CO)O4)c(=O)nc3s2)cc1 | 20000 nM | 14 nM | 50 µM | > 200000 nM | 25 nM
CCCCCCCCc1cc2cn([C@H]3C[C@H](O)[C@@H](CO)O3)c(=O)nc2s1 | > 5000 nM | 5 nM | 20 µM | 53000 nM | 2 nM
Nc1nc2c(ncn2COCCO)c(=O)[nH]1 [ACYCLOVIR] | 40000 nM |  | > 200 µM | > 400000 nM | 1100 nM
CCCCCCc1ccc(-c2cc3cn([C@H]4C[C@H](O)[C@@H](CO)O4)c(=O)nc3s2)cc1 | > 50000 nM | 43 nM | 200 µM | > 200000 nM | 80 nM
CCCCCCCCc1ccc(-c2cc3cn([C@H]4C[C@H](O)[C@@H](CO)O4)c(=O)nc3s2)cc1 | > 20000 nM | 3400 nM | ≥ 20 µM | > 200000 nM | 
